Results taken from patent US12428455B2, “Dominant negative CEBPB and CEBPD proteins and methods of use for decreasing viability of neoplastic cells” (The Trustees of Columbia University in the City of New York, priority 2018, dated 2025).
No end group written: not given here.

Assays:
[1] = tested on: BCL2, MCL1 and survivin proteins; assay: Western immunoblotting for pro-survival proteins; assay type: cell-based; details: 20 μM, 3 days; T98G, HCT116, MDA-MB-231 and MCF7 cell lines
Method: T98G, HCT116, MDA-MB-231, and MCF7 cell lines were exposed to 0 or 20 μM CP-dn-CEBPB or CP-dn-CEBPD for 3 days and then assessed by Western immunoblotting for levels of BCL2, MCL1 and survivin proteins with actin as loading control (FIG. 34A). Remaining panels show amounts of surviving (FIG. 34B), BCL2 (FIG. 34C) and MCL1 (FIG. 34D) were quantified relative to actin in multiple experiments.

[2] = tested on: 293T transformed embryonic kidney cells; assay: Cell number after peptide treatment, 293T; assay type: cell-based; details: 6 days, 0 μM to 50 μM; stock without BSA
Method: Replicate cultures of MDA-MB-468 breast cancer cells, A549 lung cancer cells and 293T transformed embryonic kidney cells were exposed to CP-DN-CEBPB or CP-DN-CEBPD, for 6 days at doses of 0 μM to 50 μM. […] Stock solutions of the peptides were prepared in buffer without added bovine serum albumin (BSA).

[3] = tested on: HIEC-6 non-cancer cell lines; assay: PI-Annexin staining and flow cytometry, HIEC-6; assay type: cell-based, human; details: 20 μM, 3 days
Method: MDA-MB-231, MCF7, HCT116 and T98G cancer cell lines and HIEC-6 non-cancer cell lines were treated for 3 days with 20 μM CP-dn-CEBPB and CP-dn-CEBPD peptides from stock solutions prepared without additives, followed by PI-Annexin staining and flow cytometry. Numbers in upper and lower quadrants indicate % of cells in early (lower) or late (upper) apoptotic phase.

MDA-MB 231 cells [4] = assay: Scratch migration assay, MDA-MB 231; assay type: cell-based; details: 20 hours, 20 μM or 40 μM
Method: Monolayers of MDA-MB 231 or T98G cells were subjected to formation of a scratch at 0 time and cultured for 20 hours in 20 μM or 40 μM CP-DN-CEBPB and CP-DN-CEBPD. Multiple images taken at 0 time and after 20 hours were analyzed for gap width of the scratches into which cells migrated or not. Example images for T98G are found in FIG. 22A, with compiled data for the T98G samples in FIG. 22B. Example images for MDA-MB 231 are found in FIG. 22C, with compiled data for the MDA-MB 231 samples in FIG. 22D.

MCF7 breast cancer cells = assay: Cell number after peptide treatment, MCF7; assay type: cell-based; details: 6 days, 0 μM to 50 μM; stock without BSA
Method: (§1) Replicate cultures were exposed to the peptides the for 6 days at the indicated concentrations. Stock solutions of the peptides were prepared in buffer without added bovine serum albumin (BSA).
Replicate cultures of HCT116, MDA-MB 231, MCF7, and T98G cells were exposed to a 50/50 by concentration mixture of CP-DN-CEBPB and CP-DN-CEBPD for 6 days at doses of 0 μM to 50 μM. Stock solutions of the peptides were prepared in buffer without added bovine serum albumin (BSA).
Replicate cultures of T98G, HCT116, MDA-MB 231, and MCF7 cells were exposed to CP-DN-CEBPB, CP-DN-CEBPD, or a CP-DN-CEBPD in which heptad repeat leucine residues were mutated to glycine residues for 6 days at doses of 0 μM to 50 μM. Stock solutions of the peptides were prepared in buffer without added bovine serum albumin (BSA).

MDA-MB 231 cells [5] = assay: Colony forming activity on culture plates, MDA-MB 231; assay type: cell-based; details: 6 days; doses 0.05, 0.5 and 5 μM
Method: T98G (FIG. 21A), MDA-MB 231 (FIG. 21B), and HCT116 (FIG. 21C) cells were exposed to CP-DN-CEBPB and CP-DN-CEBPD for 6 days at doses of 0.05 μM 0.5 μM, and 5 μM while growing in soft agar. Growth was inhibited by does as low as 0.5 μM. T98G (FIG. 21D), MDA-MB 231 (FIG. 21E), and HCT116 (FIG. 21F) cells were exposed to CP-DN-CEBPB and CP-DN-CEBPD for 6 days at doses of 0.05 μM 0.5 μM, and 5 μM while growing on culture plates. Growth was inhibited by does as low as 0.5 μM.

IL8 = assay: qPCR for IL8 mRNA; assay type: cell-based; details: 20 μM, 3 days; T98G, MDA-MB-231, MCF7, A375 and HCT116 cells
Method: T98G, MDA-MB-231, MCF7, A375, and HCT116 cells were treated with or without 20 μM CP-dn-CEBPB or CP-dn-CEBPD for 3 days and then assessed by qPCR for relative levels of IL6 (FIG. 32A, T98G; FIG. 32B, MDA-MB-231; FIG. 32C, MCF7; FIG. 32D, A375; FIG. 32E, HCT116) and IL8 mRNA (FIG. 32F, T98G; FIG. 32G, MDA-MB-231; FIG. 32H, MCF7; FIG. 32I, A375; FIG. 32J, HCT116).

T98G cells = assay: Combination with chloroquine, cell number, T98G; assay type: cell-based; details: 5 μM or 10 μM chloroquine and 3 μM or 10 μM peptide, 6 days
Method: Replicate cultures of T98G, MDA-MB 231, and HCT116 cells were treated with 5 μM or 10 μM chloroquine and 3 μM or 10 μM CP-dn-CEBPB and CP-dn-CEBPD peptides, maintained for 6 days, and then assessed for cell number. The bar graphs of FIGS. 29A (T98G, CP-dn-CEBPB), 29C (T98G, CP-dn-CEBPBD, 29E (MDA-MB-231, CP-dn-CEBPBD), 29G (MDA-MB-231, CP-dn-CEBPD), 29I (HCT116, CP-dn-CEBPBB), and 26K (HCT116, CP-dn-CEBPBD) show relative cell numbers for each condition as compared to untreated controls. The line graphs of FIGS. 26B (T98G, CP-dn-CEBPB), 26D (T98G, CP-dn-CEBPBD), 26F (MDA-MB-231, CP-dn-CEBPB), 26H (MDA-MB-231, CP-dn-CEBPD), 26J (HCT116, CP-dn-CEBPB), and 26L (HCT116 CP-dn-CEBPBD) show the response as normalized in each case so that 100 represents the relative number of surviving cells that received the indicated level of chloroquine, but no peptide treatment. The results ranged from near-additive (HCT116 cells, CI=0.92±0.08 for CP-dn-CEBPB and 0.87±0.07 for CP-dn-CEBPD) to apparent synergy (T98G, CI=0.56±0.06 for CP-dn-CEBPB and 0.75±0.03 for CP-dn-CEBPD; MDA-MB-261, CI=0.59±0.11 for CP-dn-CEBPB and 0.47±0.05 for CP-dn-CEBPD).

[6] = tested on: Mgpp3 murine proneural glioma cells; assay: Cell number after peptide treatment, Mgpp3; assay type: cell-based; details: 6 days, 0 μM to 50 μM; stock without BSA
Method: as §1

Sequence | levels of BCL2, MCL1 and survivin proteins relative to actin [1] | number of 293T cells [2] | apoptotic death (early or late apoptotic phase) [3] | cell migration into scratch (gap width) (MDA-MB 231 cells [4]) | growth and survival / numbers of MCF7 cells (MCF7 breast cancer cells) | lowest dose at which growth was inhibited, culture plates (MDA-MB 231 cells [5]) | relative levels of IL8 mRNA (IL8) | CI with chloroquine (T98G cells) | growth and survival of Mgpp3 cells [6]
RQIKIWFQNRRMKWKKLETQHKVLELTAENERLQKKVEQLSRELSTLRNLFKQL [CP-DN-CEBPB] | surpress expression of pro-survival proteins | dose-dependent decrease in the number | not in the control non-caner cell line | able to inhibit migration | decrease in growth and survival | 0.5 µM | suppress expression | 0.56±0.06 | decrease in growth and survival
RQIKIWFQNRRMKWKKLVELSAENEKLHQRVEQLTRDLAGLRQFFK [CP-DN-CEBPD] | surpress expression of pro-survival proteins | dose-dependent decrease in the number | not in the control non-caner cell line | able to inhibit migration | decrease in growth and survival | 0.5 µM | suppress expression | 0.75±0.03 | decrease in growth and survival
